Measurements taken from PubChem BioAssay AID252 (DTP/NCI, 2004).
Several values for one entry are separate records, joined by “and”; a condition that tells them apart may be missing. Equal entries are not always repeated. Inconclusive results and toxic doses are left out.

Test system: BDF1 mice, intracerebral L1210 leukemia, survival T/C
Test: NCI In Vivo Anticancer Drug Screen. Data for tumor model L1210 Leukemia (intracerebral) in B6D2F1 (BDF1) mice
Conditions: higher = longer survival
Summary of the method: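 Antitumour effect is judged in mice with transplanted tumour by comparing survival of treated (T) against vehicle-dosed (C) groups as T/C.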

[1] = endpoint: mean survival time, dose: 18.0 mg/kg/injection, schedule: Q01DX001 (ip), vehicle: carboxymethylcellulose (CMC)
[2] = endpoint: mean survival time, dose: 300.0 mg/kg/injection, schedule: Q01DX001 (ip), vehicle: carboxymethylcellulose (CMC)

O=NN(CCCl)C(=O)Nc1cccc2cccnc12
T/C (endpoint: mean survival time, dose: 1.0 mg/kg/injection, schedule: Q01DX001 (ip), vehicle: carboxymethylcellulose (CMC)): 101 % of control | T/C (endpoint: mean survival time, dose: 1.5 mg/kg/injection, schedule: Q01DX001 (ip), vehicle: carboxymethylcellulose (CMC)): 103 % of control | T/C (endpoint: mean survival time, dose: 2.6 mg/kg/injection, schedule: Q01DX001 (ip), vehicle: carboxymethylcellulose (CMC)): 104 % of control | T/C (endpoint: mean survival time, dose: 4.0 mg/kg/injection, schedule: Q01DX001 (ip), vehicle: carboxymethylcellulose (CMC)): 105 % of control | T/C (endpoint: mean survival time, dose: 6.0 mg/kg/injection, schedule: Q01DX001 (ip), vehicle: carboxymethylcellulose (CMC)): 101 % of control | T/C (endpoint: mean survival time, dose: 9.0 mg/kg/injection, schedule: Q01DX001 (ip), vehicle: carboxymethylcellulose (CMC)): 102 % of control | T/C (endpoint: mean survival time, dose: 12.0 mg/kg/injection, schedule: Q01DX001 (ip), vehicle: carboxymethylcellulose (CMC)): 98 % of control | T/C [1]: 98 % of control

O=NN(CCCl)C(=O)Nc1ccc2ccccc2c1
T/C (endpoint: mean survival time, dose: 137.0 mg/kg/injection, schedule: Q01DX001 (ip), vehicle: carboxymethylcellulose (CMC)): 115 % of control | T/C (endpoint: mean survival time, dose: 200.0 mg/kg/injection, schedule: Q01DX001 (ip), vehicle: carboxymethylcellulose (CMC)): 103 % of control | T/C [2]: 108 % of control

O=NN(CCCl)C(=O)Nc1ccc(Cn2ccc(=O)[nH]c2=O)cc1
T/C [1]: 109 % of control | T/C (endpoint: mean survival time, dose: 26.0 mg/kg/injection, schedule: Q01DX001 (ip), vehicle: carboxymethylcellulose (CMC)): 110 % of control | T/C (endpoint: mean survival time, dose: 40.0 mg/kg/injection, schedule: Q01DX001 (ip), vehicle: carboxymethylcellulose (CMC)): 109 % of control | T/C (endpoint: mean survival time, dose: 60.0 mg/kg/injection, schedule: Q01DX001 (ip), vehicle: carboxymethylcellulose (CMC)): 122 % of control | T/C (endpoint: mean survival time, dose: 90.0 mg/kg/injection, schedule: Q01DX001 (ip), vehicle: carboxymethylcellulose (CMC)): 119 % of control

O=C(NC1=C(N2CC2)C(=O)C(NC(=O)OCCO)=C(N2CC2)C1=O)OCCO
T/C (endpoint: median survival time, dose: 0.18 mg/kg/injection, schedule: Q01DX009 (ip), vehicle: saline): 100 % of control | T/C (endpoint: median survival time, dose: 0.39 mg/kg/injection, schedule: Q01DX009 (ip), vehicle: saline): 97 % of control | T/C (endpoint: median survival time, dose: 0.75 mg/kg/injection, schedule: Q01DX009 (ip), vehicle: saline): 96 % of control and 97 % of control | T/C (endpoint: median survival time, dose: 1.5 mg/kg/injection, schedule: Q01DX009 (ip), vehicle: saline): 91 % of control and 100 % of control | T/C (endpoint: median survival time, dose: 3.0 mg/kg/injection, schedule: Q01DX009 (ip), vehicle: saline): 108 % of control and 101 % of control | T/C (endpoint: median survival time, dose: 6.0 mg/kg/injection, schedule: Q01DX009 (ip), vehicle: saline): 122 % of control and 98 % of control

Nc1nncs1
T/C (endpoint: mean survival time, dose: 135.0 mg/kg/injection, schedule: Q01DX009 (ip), vehicle: saline): 101 % of control | T/C (endpoint: median survival time, dose: 64.0 mg/kg/injection, schedule: Q01DX005 (ip), vehicle: saline with Tween-80): 120 % of control | T/C (endpoint: median survival time, dose: 512.0 mg/kg/injection, schedule: Q01DX005 (ip), vehicle: saline with Tween-80): 100 % of control

CCCCCCCCSc1ncnc2c1ncn2CCCC
T/C (endpoint: mean survival time, dose: 125.0 mg/kg/injection, schedule: Q01DX001 (ip), vehicle: saline): 106 % of control | T/C (endpoint: mean survival time, dose: 250.0 mg/kg/injection, schedule: Q01DX001 (ip), vehicle: saline): 112 % of control | T/C (endpoint: mean survival time, dose: 500.0 mg/kg/injection, schedule: Q01DX001 (ip), vehicle: saline): 106 % of control | T/C (endpoint: mean survival time, dose: 1000.0 mg/kg/injection, schedule: Q01DX001 (ip), vehicle: saline): 101 % of control

O=NN(CCCl)C(=O)NC1[C@H](O)CCC[C@@H]1O (stereo partly drawn)
T/C (endpoint: mean survival time, dose: 2.6 mg/kg/injection, schedule: Q01DX001 (ip), vehicle: saline): 123 % of control | T/C (endpoint: mean survival time, dose: 4.0 mg/kg/injection, schedule: Q01DX001 (ip), vehicle: saline): 112 % of control | T/C (endpoint: mean survival time, dose: 9.0 mg/kg/injection, schedule: Q01DX001 (ip), vehicle: saline): 156 % of control | T/C (endpoint: mean survival time, dose: 14.0 mg/kg/injection, schedule: Q01DX001 (ip), vehicle: saline): 388 % of control | T/C (endpoint: mean survival time, dose: 22.0 mg/kg/injection, schedule: Q01DX001 (ip), vehicle: saline): 324 % of control

CCCCCCC(=O)NC1=C(N2CC2)C(=O)C(NC(=O)CCCCCC)=C(N2CC2)C1=O
T/C (endpoint: mean survival time, dose: 20.0 mg/kg/injection, schedule: Q01DX009 (ip), vehicle: Klucel (hydroxypropylcellulose) (HPC)): 100 % of control | T/C (endpoint: mean survival time, dose: 40.0 mg/kg/injection, schedule: Q01DX009 (ip), vehicle: Klucel (hydroxypropylcellulose) (HPC)): 105 % of control | T/C (endpoint: mean survival time, dose: 80.0 mg/kg/injection, schedule: Q01DX009 (ip), vehicle: Klucel (hydroxypropylcellulose) (HPC)): 120 % of control | T/C (endpoint: mean survival time, dose: 160.0 mg/kg/injection, schedule: Q01DX009 (ip), vehicle: Klucel (hydroxypropylcellulose) (HPC)): 106 % of control

N=[N+]=CC(=O)OCC(N)C(=O)O (stereo not drawn)
T/C (endpoint: mean survival time, dose: 43.0 mg/kg/injection, schedule: Q01DX001 (ip), vehicle: saline): 104 % of control | T/C (endpoint: mean survival time, dose: 66.0 mg/kg/injection, schedule: Q01DX001 (ip), vehicle: saline): 101 % of control

S=P(N1CC1)(N1CC1)N1CC1
T/C (endpoint: mean survival time, dose: 10.0 mg/kg/injection, schedule: Q01DX001 (ip), vehicle: saline): 154 % of control | T/C (endpoint: mean survival time, dose: 15.0 mg/kg/injection, schedule: Q01DX001 (ip), vehicle: saline): 228 % of control

CN(N=O)C(=O)NCCCCNC(=O)N(C)N=O
T/C (endpoint: mean survival time, dose: 250.0 mg/kg/injection, schedule: Q01DX001 (ip), vehicle: carboxymethylcellulose (CMC)): 103 % of control | T/C [2]: 110 % of control | T/C (endpoint: mean survival time, dose: 500.0 mg/kg/injection, schedule: Q01DX001 (ip), vehicle: carboxymethylcellulose (CMC)): 102 % of control | T/C (endpoint: mean survival time, dose: 750.0 mg/kg/injection, schedule: Q01DX001 (ip), vehicle: carboxymethylcellulose (CMC)): 110 % of control

CNC(=O)N(C)N=O
T/C (endpoint: mean survival time, dose: 112.0 mg/kg/injection, schedule: Q01DX001 (ip), vehicle: carboxymethylcellulose (CMC)): 115 % of control | T/C (endpoint: mean survival time, dose: 167.0 mg/kg/injection, schedule: Q01DX001 (ip), vehicle: carboxymethylcellulose (CMC)): 113 % of control | T/C (endpoint: mean survival time, dose: 225.0 mg/kg/injection, schedule: Q01DX001 (ip), vehicle: carboxymethylcellulose (CMC)): 161 % of control | T/C (endpoint: mean survival time, dose: 375.0 mg/kg/injection, schedule: Q01DX001 (ip), vehicle: carboxymethylcellulose (CMC)): 112 % of control

Cc1cccc2c(Nc3ccc(NS(C)(=O)=O)cc3)c3ccc([N+](=O)[O-])cc3nc12
T/C (endpoint: mean survival time, dose: 10.0 mg/kg/injection, schedule: Q01DX009 (ip), vehicle: saline): 114 % of control | T/C (endpoint: mean survival time, dose: 10.0 mg/kg/injection, schedule: Q01DX009 (sc), vehicle: saline): 104 % of control | T/C (endpoint: mean survival time, dose: 20.0 mg/kg/injection, schedule: Q01DX009 (ip), vehicle: saline): 94 % of control | T/C (endpoint: mean survival time, dose: 20.0 mg/kg/injection, schedule: Q01DX009 (sc), vehicle: saline): 101 % of control | T/C (endpoint: mean survival time, dose: 40.0 mg/kg/injection, schedule: Q01DX009 (sc), vehicle: saline): 96 % of control

CN(C)/N=N/c1nc[nH]c1C(N)=O
T/C (endpoint: mean survival time, dose: 53.0 mg/kg/injection, schedule: Q01DX Z (ip), vehicle: carboxymethylcellulose (CMC)): 106 % of control | T/C (endpoint: mean survival time, dose: 80.0 mg/kg/injection, schedule: Q01DX Z (ip), vehicle: carboxymethylcellulose (CMC)): 104 % of control | T/C (endpoint: mean survival time, dose: 120.0 mg/kg/injection, schedule: Q01DX Z (ip), vehicle: carboxymethylcellulose (CMC)): 112 % of control | T/C (endpoint: mean survival time, dose: 180.0 mg/kg/injection, schedule: Q01DX Z (ip), vehicle: carboxymethylcellulose (CMC)): 93 % of control | T/C (endpoint: mean survival time, dose: 317.0 mg/kg/injection, schedule: Q01DX001 (ip), vehicle: carboxymethylcellulose (CMC)): 101 % of control | T/C (endpoint: mean survival time, dose: 482.0 mg/kg/injection, schedule: Q01DX001 (ip), vehicle: carboxymethylcellulose (CMC)): 87 % of control | T/C (endpoint: median survival time, dose: 10.0 mg/kg/injection, schedule: Q01DX009 (ip), vehicle: carboxymethylcellulose (CMC)): 111 % of control | T/C (endpoint: median survival time, dose: 20.0 mg/kg/injection, schedule: Q01DX009 (ip), vehicle: carboxymethylcellulose (CMC)): 111 % of control | T/C (endpoint: median survival time, dose: 40.0 mg/kg/injection, schedule: Q01DX009 (ip), vehicle: carboxymethylcellulose (CMC)): 114 % of control | T/C (endpoint: median survival time, dose: 80.0 mg/kg/injection, schedule: Q01DX009 (ip), vehicle: carboxymethylcellulose (CMC)): 117 % of control | T/C (endpoint: median survival time, dose: 160.0 mg/kg/injection, schedule: Q01DX009 (ip), vehicle: carboxymethylcellulose (CMC)): 118 % of control | T/C (endpoint: median survival time, dose: 200.0 mg/kg/injection, schedule: Q01DX009 (ip), vehicle: carboxymethylcellulose (CMC)): 103 % of control | T/C (endpoint: median survival time, dose: 300.0 mg/kg/injection, schedule: Q01DX009 (ip), vehicle: carboxymethylcellulose (CMC)): 94 % of control | T/C (endpoint: median survival time, dose: 320.0 mg/kg/injection, schedule: Q01DX009 (ip), vehicle: carboxymethylcellulose (CMC)): 108 % of control | T/C (endpoint: median survival time, dose: 400.0 mg/kg/injection, schedule: Q01DX009 (ip), vehicle: carboxymethylcellulose (CMC)): 111 % of control | T/C (endpoint: median survival time, dose: 600.0 mg/kg/injection, schedule: Q01DX009 (ip), vehicle: carboxymethylcellulose (CMC)): 94 % of control

CC(C)(C)C1CCCC(NC(=O)N(CCCl)N=O)C1 (stereo not drawn)
T/C (endpoint: mean survival time, dose: 187.0 mg/kg/injection, schedule: Q01DX001 (ip), vehicle: saline with Tween-80): 169 % of control

C[C@@H]1CN1C1=CC(=O)C(N2C[C@H]2C)=CC1=O
T/C (endpoint: mean survival time, dose: 8.0 mg/kg/injection, schedule: Q01DX009 (ip), vehicle: Klucel (hydroxypropylcellulose) (HPC)): 95 % of control
